Reference: patent publication US11844841B2, “Dosing regimens and related compositions and methods” (Apellis Pharmaceuticals, Inc., priority 2017, dated 2023)

Key:
[1] = Phase 1 single and multiple ascending dose trial of inhaled (nebulized) CA28 in healthy volunteers; assay type: in vivo, human; settings: for adverse event: one subject
Protocol: In the single ascending dose part of the trial, 16 subjects were enrolled in four cohorts of four subjects each.
Four subjects were enrolled in the first cohort of the multiple ascending dose part of the trial. These subjects were to receive 14 consecutive days of treatment with a 60 mg/day dose of the drug. […] The trial was paused and subsequently resumed, with subjects receiving 30 mg/day. […] The trial was then terminated.

[2] = Inhalation study, repeated dosing; settings: in vivo, inhaled or intranasal, 25 mg/kg/d; 7 day repeated dose study in the dog
Protocol: (§1) Inhalation studies of single dose or repeated dosing were conducted in dog and cynomolgus monkey. […] These doses were 25 mg/kg/d in a 7 day repeated dose study in the dog, 80 mg/kg in a single dose study in the monkey, and 30 mg/kg/day in a 14 day repeated dose in the monkey.

[3] = Inhalation studies, single dose and repeated dosing; assay type: in vivo, cynomolgus monkey
Protocol: as §1

[4] = tested on: PNH RBCs; test: Modified Ham's assay, comparison with Soliris (Example 19); assay type: cell-based, human; settings: CA28-2GS-BF 50 ug/ml
Protocol: Flow cytometry was performed after antibody staining using antibodies against CD59 and C3d. In this figure, quadrant 1 (Q1) and quadrant 3 (Q3) represent Type III cells. Quadrant 2 (Q2) and quadrant 4 (Q4) represent Types I and II cells. Q1 and Q2 represent cells with a significant and abnormally high amount of C3 activation product (e.g., C3d) deposition. Q3 and Q4 represent cells without significant C3d deposition or somewhat elevated level (right portion of Q4) but less so than Q2 cells.

[5] = tested on: RBCs from a patient with PNH; test: Modified Ham's test with flow cytometry for CD59 and C3d (Example 18); assay type: cell-based, human
Protocol: A modified Ham's test was performed to assess the ability of compstatin analogs to protect PNH RBCs from complement-mediated lysis. […] Exposure to heat inactivated human serum was used as a control representing no significant complement-mediated lysis as complement is inactivated by heat. Exposure to acidified human serum and magnesium (Mg^2+) in the absence of complement inhibitors (pane labeled Mg^2+) was used as a control representing maximum lysis.
Following incubation, cells were stained with antibodies to CD59 and C3d. CD59 level permitted the classification of the PNH RBCs as Type I, Type II, or Type III. Staining for C3d, a product of C3 activation and cleavage was used as a marker of C3 and C3 activation product deposition (loading). Flow cytometric analysis was performed to assess CD59 and C3d on RBC surfaces and to quantify the percentages of Type I, Type II, and Type III cells present in various samples.
Type I cells (shown in orange in FIG. 12) have normal levels of CD59. Type III cells (shown in blue in FIG. 12) have essentially no detectable CD59. […] Type II cells (shown in purple in FIG. 12) have reduced levels of CD59 as compared with normal or Type I cells and have an intermediate sensitivity to complement-mediated lysis. […] Type II cells may eventually lyse in the presence of activated complement but can accumulate a considerable amount of C3 activation products such as C3d before they do so. Reduction in or absence of lysis may be evidenced by increased levels of C3 or C3 activation products on Type II cells, as is evident by comparing the level of C3d on Type II cells in the no lysis panel with the level of C3d on Type II cells in the max. lysis panel in both FIGS. 12(A) and 12(B). […] A shift in the relative percentages of Type I, II, and III cells from the percentages present in the max. lysis control panels (Mg^2+) towards the percentages present in the no lysis control panels (heat inactivated serum) is indicative of protection against complement-mediated lysis. The column labeled % C′3 in Table 11 refers to the percentage of cells deemed “positive” for presence of C3 and C3 activation products (“C3 loading”).

[6] = tested on: complement activation via the classical pathway; test: Classical complement inhibition assay (C3b deposition ELISA); assay type: biochemical, human
Protocol: Inhibitory activity of the synthesized compounds was assessed by measuring the effect of the compounds on complement activation via the classical pathway using a standard complement inhibition assay. The protocol measures C3b deposition in an ELISA format. C3b deposition monitored using this method is generated through complement activated by the classical pathway. Briefly, 96-well plates are coated with BSA. Human plasma, chicken ovalbumin (OVA), polyclonal anti-OVA antibodies and compound being tested (referred to as “drug”) are added and incubated, followed by addition of Anti-human C3 HRP-conjugated antibody. After an additional incubation, substrate is added and signal detected. Details of the protocol are as follows:
Protocol for Classical Complement Inhibition Assay
• Ninety-six well plate (polystyrene plate, Thermo Scientific, 9205) • Chicken OVA (Sigma A5503-5G) • Rabbit anti-chicken OVA (Abcam ab1221) • Blocking buffer (Startingblock buffer, Thermo Scientific 37538) • Veronal Buffer (5× concentration, Lonza 12-624E) • Human plasma (collected with Lepirudin at 50 ug/ml final concentration) • Goat anti-human C3 HRP-conjugated Ab (MP Biomedicals, 55237) • Tween-20 Wash Buffer (0.05% Tween 20-PBS buffer) • TMB (Peroxidase substrate, BD 555214)—1:1 mixture of BD 51-2607KC and 51-2606KC. • 1M H2SO4 Protocol: • 1. […]
Data was analyzed using GraphPad Prism5 software. […]

## CC[C@H](C)[C@H](NC(C)=O)C(=O)N[C@H]1CSSC[C@@H](C(=O)N[C@H](C(N)=O)[C@@H](C)O)NC(=O)[C@H](CCCNC(=N)N)NC(=O)[C@H](Cc2cnc[nH]2)NC(=O)[C@H](C)NC(=O)CNC(=O)[C@H](Cc2c[nH]c3ccccc23)NC(=O)[C@H](CC(=O)O)NC(=O)[C@H](CCC(N)=O)NC(=O)[C@H](Cc2cn(C)c3ccccc23)NC(=O)[C@H](C(C)C)NC1=O [CA28]
[1]; 30 mg/day inhaled, after 10 days of treatment
  adverse event: signs and symptoms consistent with a potential bacterial infection
[1]; 60 mg/day inhaled, after nine days of treatment
  adverse event: signs and symptoms consistent with a potential bacterial infection
[1]; single inhaled doses 20, 60, 150 or 350 mg
  safety and tolerability: well tolerated and no serious adverse events were reported
[2]
  NOAEL at 168 h: 25 mg/kg/day
[3]; 14 day repeated dose in the monkey
  highest inhaled dose tested, no drug-related findings: 30 mg/kg/day
[3]; cynomolgus monkey, in vivo, inhaled or intranasal, 80 mg/kg, single dose study in the monkey
  NOAEL: 80 mg/kg

## CA28-2GS-BF: Bifunctional linear 40 kD PEG of the GS (glutaryl NHS ester) type coupled to two CA28-AEEAc-Lys moieties
[4]
  deposition of C3d on PNH RBCs: essentially no deposition of C3d
[5]; compound at 20 micrograms/ml
  Type I % C′3: 2.18%
  Type II % C′3: 12.28%
  Type III % C′3: 0.99%
[5]; compound at 40 micrograms/ml
  Type I % C′3: 2.84%
  Type III % C′3: 1.21%
[5]; compound at 50 micrograms/ml
  Type I % C′3: 2.26%
  Type III % C′3: 1.29%
[5]; compound at 60 micrograms/ml
  Type I % C′3: 2.05%
  Type II % C′3: 13.04%
  Type III % C′3: 1.44%
[5]; compound at 100 micrograms/ml
  Type I % C′3: 0.07%
  Type II % C′3: 0.88%
  Type III % C′3: 0.11%
[5]; compound at 200 micrograms/ml
  Type I % C′3: 0.02%
  Type II % C′3: 0.26%
  Type III % C′3: 0.02%
[5]; compound at 500 micrograms/ml
  Type I % C′3: 0.04%
  Type II % C′3: 0.3%
  Type III % C′3: 0.05%
[5]; in the presence of 100 ug/ml or more compstatin analog
  protection of PNH RBCs from complement-mediated lysis: complete protection from complement-mediated lysis
[6]
  complement inhibiting activity, comparison in words: virtually identical
